Reference: patent US20210214375A1 (LUNDBECK LA JOLLA RESEARCH CENTER, INC., priority 2017, published 2021)
Read-outs that look alike come from different tables or passages of the source.

Key:
MAGL [1] = biological target: T1, MAGL (Homo sapiens, UniProt Q99685); assay: In vitro competitive activity-based protein profiling (gel-based, FP-Rh or HT-01 probe); format: biochemical
T1 construct: Proteomes (human prefrontal cortex or cell membrane fractions); from tissue
T1 sequence (Q99685 1-303): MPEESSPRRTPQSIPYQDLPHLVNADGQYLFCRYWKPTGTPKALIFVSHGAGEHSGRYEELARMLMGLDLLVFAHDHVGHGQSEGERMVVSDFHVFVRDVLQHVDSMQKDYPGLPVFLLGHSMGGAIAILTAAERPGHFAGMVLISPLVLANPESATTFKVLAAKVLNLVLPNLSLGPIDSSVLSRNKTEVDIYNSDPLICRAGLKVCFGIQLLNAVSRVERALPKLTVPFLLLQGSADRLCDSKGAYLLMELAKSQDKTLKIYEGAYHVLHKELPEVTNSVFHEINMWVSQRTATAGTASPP
Method in brief: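 Readout is SDS-PAGE of probe-labelled proteome after FP-Rh or HT-01 (1.0 μL, 50 μM stock) labelling for 30 min at room temperature. Beforehand, inhibitors at varying concentrations were preincubated 30 min at 37° C with human prefrontal cortex or cell membrane fractions at 1.0 mg/mL total protein.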

ABHD6 = biological target: T2, ABHD6 (Mus musculus, UniProt Q8R2Y0); assay: In vitro competitive activity-based protein profiling, mouse brain proteome, ABHD6; format: biochemical; settings: mouse
T2 construct: Brain; from tissue; host or cells: mouse brain proteome
T2 sequence (Q8R2Y0 1-336): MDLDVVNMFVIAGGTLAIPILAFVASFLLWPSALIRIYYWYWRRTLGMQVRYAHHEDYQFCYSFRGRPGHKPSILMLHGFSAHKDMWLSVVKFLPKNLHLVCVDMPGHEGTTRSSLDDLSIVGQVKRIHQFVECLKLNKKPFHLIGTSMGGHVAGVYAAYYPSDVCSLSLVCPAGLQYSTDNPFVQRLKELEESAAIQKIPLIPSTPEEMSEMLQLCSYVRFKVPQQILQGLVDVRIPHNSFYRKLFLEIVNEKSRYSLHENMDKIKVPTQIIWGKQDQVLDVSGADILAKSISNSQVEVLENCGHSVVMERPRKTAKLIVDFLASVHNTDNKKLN
Description: [Worded in the source for another target; this target is reported under the same test.] (§1) Proteomes (human prefrontal cortex or cell membrane fractions) (50 μL, 1.0 mg/mL total protein concentration) were preincubated with varying concentrations of inhibitors at 37° C. After 30 min, FP—Rh or HT-01 (1.0 μL, 50 μM in DMSO) was added and the mixture was incubated for another 30 min at room temperature. Reactions were quenched with SDS loading buffer (15 μL-4×) and run on SDS-PAGE.

MGLL = biological target: T3, MGLL (Mus musculus, UniProt O35678); assay: In vitro competitive activity-based protein profiling, mouse brain proteome; format: biochemical
T3 construct: Brain; from tissue; host or cells: mouse brain proteome
T3 sequence (O35678 1-303): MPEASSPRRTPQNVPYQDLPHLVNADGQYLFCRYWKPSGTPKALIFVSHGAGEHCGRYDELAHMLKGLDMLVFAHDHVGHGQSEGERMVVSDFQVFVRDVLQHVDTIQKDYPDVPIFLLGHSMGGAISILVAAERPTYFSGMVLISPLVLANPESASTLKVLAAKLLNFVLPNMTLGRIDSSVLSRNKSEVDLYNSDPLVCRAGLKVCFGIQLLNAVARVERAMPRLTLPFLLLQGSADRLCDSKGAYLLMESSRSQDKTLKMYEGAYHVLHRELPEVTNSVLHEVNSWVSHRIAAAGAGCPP
Description: [Worded in the source for another species; this species is reported under the same test.] as §1

MAGL [2] = biological target: T4, MAGL (Mus musculus, UniProt O35678); assay: Mouse brain proteomes from inhibitor treated mice (oral gavage, brain proteomes analyzed 4 h after administration); format: in vivo, mouse (C57Bl/6J); settings: brain proteome 4 h after administration, read-out: % Inh 5 mg/kg MGLL (Mouse)
T4 construct: from tissue; host or cells: brain of wild-type C57Bl/6J mice
T4 sequence (O35678 1-303): T3 sequence (O35678 1-303)
Method in brief: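 Wild-type C57Bl/6J mice dosed orally in polyethylene glycol vehicle; brains removed 4 h post-dose and brain proteomes prepared and analysed for MAGL and serine hydrolase activity by previously established methods.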

[3] = PC3 proteome, read-out: IC50 MGLL PC3 (Human)
[4] = PFC (prefrontal cortex) proteome, read-out: IC50 MGLL PFC (Human)

`O=C(O)C1CCN(c2cc(CN3CC4(CCN(C(=O)OC(C(F)(F)F)C(F)(F)F)CC4)C3)cc(C(F)(F)F)c2)CC1` [Example 99, 1-(3-((7-(((1,1,1,3,3,3-Hexafluoropropan-2-yl)oxy)carbonyl)-2,7-diazaspiro[3.5]nonan-2-yl)methyl)-5-(trifluoromethyl)phenyl)piperidine-4-carboxylic acid] showed an IC50 (MAGL [1]; [3]) of less than 100 nM, an IC50 (MAGL [1]; [4]) of less than 100 nM and an IC50 (ABHD6) of 100 to 1000 nM. It also gave an IC50 (MGLL) of less than 100 nM and an inhibition at 5 mg/kg (MAGL [2]) of 25 to 75%.

In the case of `CC(=O)N1CC2(CCN(c3ccccc3CN3CCN(C(=O)OC(C(F)(F)F)C(F)(F)F)CC3)C2)C1` [Example 168, 1,1,1,3,3,3-Hexafluoropropan-2-yl 4-(2-(2-acetyl-2,6-diazaspiro[3.4]oetan-6-yl)benzyl)piperazine-1-carboxylate], the IC50 (MAGL [1]; [3]) is reported as less than 100 nM, the IC50 (ABHD6) is reported as greater than 1000 nM and the IC50 (MGLL) is reported as less than 100 nM. For the same compound, the inhibition at 5 mg/kg (MAGL [2]) was no less than 75%.

`O=C(O)C1CN(c2cc(C(F)(F)F)ccc2CN2CC3(CCN(C(=O)OC(C(F)(F)F)C(F)(F)F)CC3)C2)CCO1` (stereo not drawn) [Example 20, 4-(2-((7-(((1,1,1,3,3,3-Hexafluoropropan-2-yl)oxy)carbonyl)-2,7-diazaspiro[3.5]nonan-2-yl)methyl)-5-(trifluoromethyl)phenyl)morpholine-2-carboxylic acid] was tested, and the IC50 (MAGL [1]; [3]) was less than 100 nM, the IC50 (MAGL [1]; [4]) was less than 100 nM and the IC50 (ABHD6) was greater than 1000 nM. The IC50 (MGLL) was less than 100 nM and the inhibition at 5 mg/kg (MAGL [2]) was no less than 75%.

For `CC(=O)N1CC2(CCN(c3cc(C(F)(F)F)ccc3CN3CCN(C(=O)OC(C(F)(F)F)C(F)(F)F)CC3)CC2)C1` [Example 216, 1,1,1,3,3,3-Hexafluoropropan-2-yl 4-(2-(2-acetyl-2,7-diazaspiro[3.5]nonan-7-yl)-4-(trifluoromethyl)benzyl)piperazine-1-carboxylate], the IC50 (MAGL [1]; [3]) was less than 100 nM, the IC50 (ABHD6) was greater than 1000 nM and the IC50 (MGLL) was less than 100 nM. The inhibition at 5 mg/kg (MAGL [2]) was no less than 75%.

In the case of `CN(Cc1ccc(C(F)(F)F)cc1N1CCOC(C(=O)O)C1)C1(C)CCN(C(=O)OC(C(F)(F)F)C(F)(F)F)CC1` (stereo not drawn) [Example 108, 4-(2-(((1-(((1,1,1,3,3,3-Hexafluoropropan-2-yl)oxy)carbonyl)-4-methylpiperidin-4-yl)(methyl)amino)methyl)-5-(trifluoromethyl)phenyl)morpholine-2-carboxylic acid], the IC50 (MAGL [1]; [3]) is reported as less than 100 nM, the IC50 (ABHD6) is reported as 100 to 1000 nM and the IC50 (MGLL) is reported as less than 100 nM. For the same compound, the inhibition at 5 mg/kg (MAGL [2]) was no more than 25%.

In the case of `CS(=O)(=O)N1CC2(CCN(c3cc(C(F)(F)F)ccc3CN3CCN(C(=O)OC(C(F)(F)F)C(F)(F)F)CC3)C2)C1` [Example 186, 1,1,1,3,3,3-Hexafluoropropan-2-yl 4-(2-(2-(methylsulfonyl)-2,6-diazaspiro[3.4]octan-6-yl)-4-(trifluoromethyl)benzyl)piperazine-1-carboxylate], the IC50 (MAGL [1]; [3]) is reported as less than 100 nM, the IC50 (ABHD6) is reported as greater than 1000 nM and the IC50 (MGLL) is reported as less than 100 nM. The inhibition at 5 mg/kg (MAGL [2]) was no less than 75%.

For `CC(=O)N1CCC2(CCN(c3cc(C(F)(F)F)ccc3CN3CCN(C(=O)OC(C(F)(F)F)C(F)(F)F)CC3)CC2)C1` [Example 189, 1,1,1,3,3,3-Hexafluoropropan-2-yl 4-(2-(2-acetyl-2,8-diazaspiro[4.5]decan-8-yl)-4-(trifluoromethyl)benzyl)piperazine-1-carboxylate], the IC50 (MAGL [1]; [3]) was less than 100 nM, the IC50 (ABHD6) was greater than 1000 nM and the IC50 (MGLL) was less than 100 nM. For the same compound, the inhibition at 5 mg/kg (MAGL [2]) was no less than 75%.

In the case of `CC(=O)N1CCC2(CCN(c3cc(Cl)ccc3CN3CCN(C(=O)OC(C(F)(F)F)C(F)(F)F)CC3)CC2)C1` [Example 178, 1,1,1,3,3,3-Hexafluoropropan-2-yl 4-(2-(2-acetyl-2,8-diazaspiro[4.5]decan-8-yl)-4-chlorobenzyl) piperazie-1-carboxylate], the IC50 (ABHD6) is reported as greater than 1000 nM, the IC50 (MGLL) is reported as less than 100 nM and the inhibition at 5 mg/kg (MAGL [2]) is reported as no less than 75%.

In the case of `CN(Cc1ccc(C(F)(F)F)cc1N1CCCC1)C1(C)CCN(C(=O)OC(C(F)(F)F)C(F)(F)F)CC1` [Example 72, 1,1,1,3,3,3-Hexafluoropropan-2-yl 4-methyl-4-(methyl(2-(pyrrolidin-1-yl)-4-(trifluoromethyl)benzyl)amino) piperidine-1-carboxylate], the IC50 (ABHD6) is reported as greater than 1000 nM, the IC50 (MGLL) is reported as less than 100 nM and the inhibition at 5 mg/kg (MAGL [2]) is reported as no less than 75%.

With `CN(Cc1ccc(C(F)(F)F)cc1N1CCOCC1)C1(C)CCN(C(=O)OC(C(F)(F)F)C(F)(F)F)CC1` [Example 63, 1,1,1,3,3,3-Hexafluoropropan-2-yl 4-methyl-4-(methyl(2-morpholino-4-(trifluoromethyl)benzyl)amino) piperidine-1-carboxylate] the IC50 (ABHD6) was greater than 1000 nM, the IC50 (MGLL) was less than 100 nM and the inhibition at 5 mg/kg (MAGL [2]) was no less than 75%.

With `O=C(OC(C(F)(F)F)C(F)(F)F)N1CCC2(CC1)CN(Cc1ccc(Cl)cc1N1CCOCC1)C2` [Example 39, 1,1,1,3,3,3-Hexafluoropropan-2-yl 2-(4-chloro-2-morpholinobenzyl)-2,7-diazaspiro[3.5]nonane-7-carboxylate] the IC50 (ABHD6) was 100 to 1000 nM, the IC50 (MGLL) was less than 100 nM and the inhibition at 5 mg/kg (MAGL [2]) was no less than 75%.

Work on `CS(=O)(=O)N1CCC2(CCN(c3cc(CN4CCCC45CN(C(=O)OC(C(F)(F)F)C(F)(F)F)C5)cc(C(F)(F)F)c3)CC2)C1` [Example 233, 1,1,1,3,3,3-Hexafluoropropan-2-yl 5-(3-(2-(methylsulfonyl)-2,8-diazaspiro[4.5]decan-8-yl)-5-(trifluoromethyl)benzyl)-2,5-diazaspiro[3.4]octane-2-carboxylate] yielded an IC50 (ABHD6) greater than 1000 nM, an IC50 (MGLL) of less than 100 nM and an inhibition at 5 mg/kg (MAGL [2]) of no more than 25%.

`CC(=O)N1CCC2(CC1)CCN(c1cc(Cl)ccc1CN1CCN(C(=O)OC(C(F)(F)F)C(F)(F)F)CC1)C2` [Example 29, 1,1,1,3,3,3-Hexafluoropropan-2-yl 4-(2-(8-acetyl-2,8-diazaspiro[4.5]decan-2-yl)-4-chlorobenzyl)piperazine-1-carboxylate] showed an IC50 (ABHD6) greater than 1000 nM, an IC50 (MGLL) of less than 100 nM and an inhibition at 5 mg/kg (MAGL [2]) of no less than 75%.

Work on `CS(=O)(=O)N1CC2(CCN(c3ccccc3CN3CCN(C(=O)OC(C(F)(F)F)C(F)(F)F)CC3)C2)C1` [Example 167, 1,1,1,3,3,3-Hexafluoropropan-2-yl 4-(2-(2-(methylsulfonyl)-2,6-diazaspiro[3.4]octan-6-yl)benzyl)piperazine-1-carboxylate] yielded an IC50 (ABHD6) greater than 1000 nM, an IC50 (MGLL) of less than 100 nM and an inhibition at 5 mg/kg (MAGL [2]) of no less than 75%.

Work on `O=C(OC(C(F)(F)F)C(F)(F)F)N1CCC2(CC1)CN(Cc1ccc(C(F)(F)F)cc1N1CCCC1)C2` [Example 151, 1,1,1,3,3,3-Hexafluoropropan-2-yl 2-(2-(pyrrolidin-1-yl)-4-(trifluoromethyl)benzyl)-2,7-diazaspiro[3.5]nonane-7-carboxylate] yielded an IC50 (ABHD6) of 100 to 1000 nM, an IC50 (MGLL) of less than 100 nM and an inhibition at 5 mg/kg (MAGL [2]) of no less than 75%.

In the case of `CN1CC2(CCN(c3cc(C(F)(F)F)ccc3CN3CCN(C(=O)OC(C(F)(F)F)C(F)(F)F)CC3)C2)C1` [Example 179, 1,1,1,3,3,3-Hexafluoropropan-2-yl 4-(2-(2-methyl-2,6-diazaspiro[3.4]octan-6-yl)-4-(trifluoromethyl)benzyl)piperazine-1-carboxylate], the IC50 (ABHD6) is reported as greater than 1000 nM, the IC50 (MGLL) is reported as less than 100 nM and the inhibition at 5 mg/kg (MAGL [2]) is reported as no less than 75%.

With `O=C(OC(C(F)(F)F)C(F)(F)F)N1CCC2(CC1)CN(Cc1c(Cl)cccc1N1CC3COCC3C1)C2` (stereo not drawn) [Example 57, 1,1,1,3,3,3-Hexafluoropropan-2-yl 2-(2-chloro-6-(tetrahydro-1H-furo[3,4-c]pyrrol-5(3H)-yl)benzyl)-2,7-diazaspiro[3.5]nonane-7-carboxylate] the IC50 (ABHD6) was 100 to 1000 nM, the IC50 (MGLL) was less than 100 nM and the inhibition at 5 mg/kg (MAGL [2]) was no less than 75%.
